From patent US20220396580A1, “TRICYCLIC DILACTONE COMPOUND, AND PRODUCTION METHOD AND USE THEREOF” (SEOUL NATIONAL UNIVERSITY R&DB FOUNDATION, priority 2020, published 2022)

How the values were obtained:
[1] = tested on: HT-22 mouse hippocampal neuronal cells and BV2 microglial cells; experiment: Immunoblotting of cleaved caspase-3 and Bcl-2 in cells treated with amyloid-beta aggregates; assay type: cell-based; details: amyloid-beta aggregates and 20 μM rhizolutin together, 24 hours
Source text: To verify the inhibitory activity of rhizolutin on the neurotoxicity of the amyloid-beta aggregates, changes in apoptosis-related biomarkers after exposing neurons to the neurotoxicity of the amyloid-beta aggregates were observed. Here, cleaved caspase-3, which is an apoptosis-inducing factor, and B-cell lymphoma 2 (Bcl-2), which inhibits apoptosis, were used as the biomarkers.
HT-22 mouse hippocampal neuronal cells and BV2 microglial cells were inoculated into a plate in a predetermined number. To each of the HT-22 cell line and the BV2 cell line, an amyloid-beta solution prepared in the same manner as in Example 2-2 was added at a concentration of […], followed by incubation at 37° C. for 24 hours. Afterwards, 20 μM of rhizolutin was added to each microtube, followed by incubation with amyloid-beta in a final concentration of 20 μM at 37° C. for 24 hours. As a negative control group, a group without rhizolutin and the amyloid-beta protein was used.
Cleaved caspase-3 and Bcl-2, which are apoptosis-related biomarkers, were identified by immunoblotting, and images thereof are shown in FIG. 5A.

Tau protein [2] = experiment: Inhibition of formation of tau aggregates (thioflavin T fluorescence); assay type: biochemical; details: 1 mM rhizolutin vs 20 mM EPPS
Experimental: Tau protein was prepared at a concentration of 1 mg/mL, and as described in Example 2-3, the prepared tau protein was added to a 1.5 mL microtube at a concentration of 0.5 mg/mL, and 1 mM of rhizolutin and 20 mM of EPPS were added thereto, followed by incubation at 37° C. for 120 hours.
(§1) Thioflavin T was added to the reaction, and the fluorescence intensity was measured at an excitation wavelength of 450 nm and an emission wavelength of 485 nm. As a negative control group, a vehicle without the tau protein and rhizolutin was used.
(§2) Based on the fluorescence intensity of the group in which only the tau protein was treated (positive control group), the fluorescence intensity (%) of each group was calculated, and results are shown in FIGS. 6A and 6B (mean±SEM, *: p<0.01, ***: p<0.001).

human A131-42 monomer [3] = molecular target: T1, human A131-42 monomer (Homo sapiens, UniProt P05067); experiment: Disaggregation of amyloid-beta aggregates (thioflavine-T fluorescence); assay type: biochemical
T1 construct: UniProt KB-P05067, a.a; 672 to 713
T1 sequence (P05067 672-713): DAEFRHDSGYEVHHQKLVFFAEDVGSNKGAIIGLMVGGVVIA
Experimental: An amyloid-beta solution was prepared by dissolving human A131-42 monomer (UniProt KB-P05067, a.a. 672 to 713) in DMSO to have a concentration of 10 mM. Then, the amyloid-beta solution was diluted with distilled water to prepare a solution having a concentration of 100 μM. Meanwhile, thioflavine-T (Sigma-Aldrich) was dissolved in 50 mM glycin buffer (pH 8.5) to have a concentration of 5 mM. Then, the resulting solution was diluted with 50 mM glycin buffer (pH 8.5) to have a concentration of 5 μM, and stored light-blocked in a dark room. In addition, to verify the activity of rhizolutin on disaggregation of the amyloid-beta aggregation, the amyloid-beta solution was added to a 1.5 mL microtube to a concentration of 25 μM and incubated at 37° C. for 72 hours. Then, 1 mM of rhizolutin was added to each microtube, followed by incubation at 37° C. for 72 hours. […] Then, fluorescence intensity was measured at an excitation wavelength of 450 nm and an emission wavelength of 485 nm by using a multi-mode microplate reader. Based on the fluorescence intensity of the group (control group) in which only amyloid-beta was treated and aggregated for 72 hours, the fluorescence intensity (%) of each group was calculated, and results are shown in FIG. 3B (mean±SEM, *: p<0.05, ***: p<0.001).

human A131-42 monomer [4] = molecular target: T1, human A131-42 monomer; experiment: Inhibition of amyloid-beta aggregation (thioflavine-T fluorescence); assay type: biochemical; details: 25 μM amyloid-beta, 1 mM rhizolutin, 37° C., 120 hours
Experimental: An amyloid-beta solution was prepared by dissolving human A131-42 monomer (UniProt KB-P05067, a.a. 672 to 713) in DMSO to have a concentration of 10 mM. Then, the amyloid-beta solution was diluted with distilled water to prepare a solution having a concentration of 100 μM. Meanwhile, thioflavine-T (Sigma-Aldrich) was dissolved in 50 mM glycin buffer (pH 8.5) to have a concentration of 5 mM. Then, the resulting solution was diluted with 50 mM glycin buffer (pH 8.5) to have a concentration of 5 μM, and stored light-blocked in a dark room. To verify the inhibitory activity of rhizolutin on the amyloid-beta aggregation, the amyloid-beta solution was added to 1.5 mL microtubes to a concentration of 25 μM, and rhizolutin was added thereto at a concentration of 1 mM, followed by incubation at 37° C. for 120 hours. […] After a reaction was allowed for 5 minutes at room temperature in the darkroom, fluorescence was measured at an excitation wavelength of 450 nm and an emission wavelength of 485 nm by using a multi-mode microplate reader. Based on the fluorescence intensity of the group (control group) in which only amyloid-beta was treated and aggregated for 120 hours, the fluorescence intensity (%) of each group was calculated, and results are shown in FIG. 3A (one-way ANOVA test followed by Bonferroni's post-hoc comparison test, mean±SEM, ***: p<0.001).

Tau protein [5] = experiment: Disaggregation of tau aggregates (thioflavin T fluorescence); assay type: biochemical; details: 1 mM rhizolutin vs 20 mM EPPS
Experimental: Meanwhile, the tau protein was added to a 1.5 mL microtube at a concentration of 0.5 mg/mL, and incubated at 37° C. for 48 hours. Then, rhizolutin was added at a concentration of 1 mM, and incubated at 37° C. for 72 hours. To compare the efficacy, EPPS was added at a concentration of 20 mM, and incubated under the same conditions.
as §1, §2

APP/PS1 transgenic mice = experiment: Amyloid-beta aggregates in brain tissue of APP/PS1 transgenic mice (thioflavine S / GFAP staining); assay type: in vivo, mouse; details: 8 mg/kg/day intraperitoneal for 3 weeks
Experimental: First, APP/PS1 transgenic mice (7.5-month-old, male, Jackson Laboratory, 9 to 10 mice/group) to which the genes of AD patients were injected were prepared. In the APP/PS1 transgenic mice, human amyloid-beta is expressed at a high level, and Alzheimer-like plaques are formed in the brain.
The prepared mice were intraperitoneally administered daily with rhizolutin at a dose of 8 mg/body weight (kg)/day for 3 weeks. As a negative control group, the prepared mice were intraperitoneally administered with a vehicle only.
Afterwards, the mouse brain was removed, and changes in amyloid-beta aggregates (in the form of oligomer or fibril) as AD biomarkers in the brain tissue were measured.

amyloid-beta disaggregation activity compared with EPPS (human A131-42 monomer [3]; 1 mM rhizolutin vs 20 mM EPPS, same conditions): better than that of EPPS | formation of amyloid-beta aggregates (oligomer or fibril) (human A131-42 monomer [4]): significantly inhibited
SMILES: CC[C@H]1C[C@@H]2/C(C)=C/[C@@H]3OC(=O)C[C@@H](O)C[C@H]3/C=C/C(C)=C\[C@H]2C(=O)O1 [rhizolutin]
expression of Bcl-2 [1]: the expression of Bcl-2 increased | expression of cleaved caspase-3 [1]: the expression of cleaved caspase-3 decreased | inhibiting formation of tau aggregates compared with EPPS (Tau protein [2]): better effects | disaggregation of amyloid-beta aggregates (oligomer or fibril) (human A131-42 monomer [3]; 25 μM amyloid-beta pre-aggregated 72 hours, then 1 mM rhizolutin 72 hours, 37° C.): disaggregated the amyloid-beta aggregates | disaggregating tau aggregates compared with EPPS (Tau protein [5]): better effects | GFAP, biomarker of neuroinflammation (astrocytosis around the plaques) (APP/PS1 transgenic mice; brain tissue): also decreased | number of amyloid-beta plaques in the hippocampus of the brain (APP/PS1 transgenic mice; thioflavine S, vs negative control group): decrease in the number of amyloid-beta plaques
